The source of these data is paper PMC6271298, “Pharmacophore Generation from a Drug-like Core Molecule Surrounded by a Library Peptide via the 10BASEd-T on Bacteriophage T7” (Molecules, 2014).

In the assay the test system is Sal-conjugated peptide-streptavidin complex. Put plainly: Competitive binding assay with biotin (fluorescence polarization). To be noted: various concentrations of biotin; 20 nM peptide (4 pmol) and 15 μM streptavidin (3 nmol); 50 mM Tris-HCl, pH 8.0, 150 mM NaCl, 1 mM TCEP-NaOH. (In general: Fluorescence polarisation rises when a labelled molecule tumbles more slowly, as on binding a larger partner.)

Description: (B) Competitive binding assay. Biotin as a competitor was mixed with the Sal-conjugated peptide-streptavidin complex.
Fluorescence polarization was measured with a HYBRID-3000ES (Photoscience, Tokyo, Japan) equipped with appropriate filters (Ex. 480 nm and Em. 535/40 nm). The Sal-conjugated fluorescent peptide (4 pmol) was incubated with various concentrations of streptavidin, NeutrAvidin, or bovine serum albumin (BSA) in tris-buffered saline (50 mM Tris-HCl, pH 8.0, 150 mM NaCl) supplemented with 1 mM TCEP-NaOH at 30 °C. Concentration of the fluorescent peptide was determined by absorption coefficient at 495 nm. NeutrAvidin® and BSA were purchased from Thermo Scientific and Nacalai tesque, respectively. Concentrations of streptavidin and NeutrAvidin were determined by absorption coefficient at 280 nm. Concentration of BSA was determined by Bradford protein assay (Bio-Rad). Klotz plot was generated by GraphPad Prism software 6.0 (GraphPad Software, San Diego, CA, USA), and the sigmoid curve was fitted with non-linear least squares analysis to obtain the dissociation constant. […] For the competitive binding assay, various concentrations of biotin were added to the solution containing Sal-conjugated peptide-streptavidin complex (4 pmol of the peptide and 3 nmol of streptavidin; 20 nM and 15 μM, respectively). Biotin was purchased from New England Biolabs (Ipswich, MA, USA).

For the compound `O=C(O)CCCC[C@@H]1SC[C@@H]2NC(=O)N[C@@H]21` [biotin], the “disruption of Sal-conjugated peptide-streptavidin interaction by biotin” value is reported as “fully disrupted”.
